We go through 29 compounds from US12673933B2, “Aminopyrazine compounds as HPK1 inhibitor and the use thereof” (BEIGENE, LTD., priority 2019, dated 2026).

SMILES strings stand for the structures.

This assay concerns the target T1, HPK1 kinase (aa1-346, Life Technologies) (Homo sapiens, UniProt Q92918).
T1 construct: HPK1 kinase (aa1-346, Life Technologies); purchased Life Technologies
T1 sequence (Q92918 1-346): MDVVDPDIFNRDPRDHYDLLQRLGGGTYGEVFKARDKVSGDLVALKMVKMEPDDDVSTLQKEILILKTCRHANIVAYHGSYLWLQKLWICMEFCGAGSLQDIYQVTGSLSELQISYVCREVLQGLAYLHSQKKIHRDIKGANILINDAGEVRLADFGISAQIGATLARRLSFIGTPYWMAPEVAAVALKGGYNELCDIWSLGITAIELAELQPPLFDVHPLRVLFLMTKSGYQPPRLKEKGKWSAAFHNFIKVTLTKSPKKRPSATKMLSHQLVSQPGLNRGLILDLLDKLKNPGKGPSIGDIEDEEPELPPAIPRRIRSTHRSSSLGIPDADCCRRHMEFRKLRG
Description: HPK Kinase Activity Assay at 1 mM ATP (TR-FRET). The format is biochemical. The following applies: HPK1 kinase 40 nM, 0.5 μM STK1 substrate, read-out: Enzymatic activity IC50. The procedure: HPK Kinase Activity Assay at 1 mM ATP
Compounds disclosed herein were tested for inhibition of HPK1 kinase (aa1-346, Life Technologies) activity in assays based on the time-resolved fluorescence-resonance energy transfer (TR-FRET) methodology. The assays were carried out in 384-well low volume black plates in a reaction mixture containing HPK1 kinase (40 nM), 1 mM ATP, 0.5 μM STK1 substrate and 0-10 μM compound in buffer containing 50 mM HEPES, 0.01% BSA, 0.1 mM Orthovanadate, 10 mM MgCl2, 1 mM DTT, pH=7.0, 0.005% Tween-20. The kinase was incubated with the compounds disclosed herein or DMSO for 60 minutes at room temperature and the reaction was initiated by the addition of ATP and STK1 substrate. After reaction at room temperature for 120 minutes, an equal volume of stop/detection solution was added according to the manufacture's instruction (CisBio). The stop/detection solution contained STK Antibody-Cryptate and XL665-conjugated streptavidin in Detection Buffer. The TR-FRET signals (ratio of fluorescence emission at 665 nm over emission at 620 nm with excitation at 337 nm wavelength) were recorded on a PHERAstar FS plate reader (BMG Labtech). Phosphorylation of STK1 substrate led to the binding of STK Antibody-Cryptate to the biotinylated STK1 substrate, which places fluorescent donor (Eu^3+ crypate) in close proximity to the accepter (Streptavidin-XL665), thus resulting in a high degree of fluorescence resonance energy transfer. The inhibition of HPK1 in presence of increasing concentrations of compounds was calculated based on the ratio of fluorescence at 665 nm to that at 620 nm. The IC50 for each compound was derived from fitting the data to the four-parameter logistic equation by Graphpad Prism software.
For orientation: TR-FRET usually uses a lanthanide donor and a delayed reading to cut background.
The IC50 is the concentration that inhibits the measured activity by half. For the compound `Cc1cc(-c2cnc(N)c(Oc3cnn(C4CCN(C)C4)c3)n2)cc2c1CCN(C)C2` (single isomer, unassigned) [Example 280A], the IC50 turned out to be 12 nM.

For `Cc1cc(-c2cnc(N)c(Oc3cnn(C4CCN(C)C4)c3)n2)cc2c1CCN(C)C2` (single isomer, unassigned) [Example 280B], the half-maximal inhibitory concentration (IC50) turned out to be 51 nM.

Turning to `Cc1cc(-c2cnc(N)c(OCc3ccncc3)n2)cc2c1CCN(C)C2` [Example 1, 5-(2,5-dimethyl-1,2,3,4-tetrahydroisoquinolin-7-yl)-3-(pyridin-4-ylmethoxy)pyrazin-2-amine], the half-maximal inhibitory concentration (IC50) came to 29 nM. Consider `Cc1cc(-c2cnc(N)c(OCc3ccncn3)n2)cc2c1CCN(C)C2` [Example 3, 5-(2,5-dimethyl-1,2,3,4-tetrahydroisoquinolin-7-yl)-3-(pyrimidin-4-ylmethoxy)pyrazin-2-amine], for which the IC50 came to 364 nM. As for `Cc1cc(-c2cnc(N)c(-n3ncc4cc(CO)ccc43)n2)cc2c1CCN(C)C2` [Example 4, (1-(3-amino-6-(2,5-dimethyl-1,2,3,4-tetrahydroisoquinolin-7-yl)pyrazin-2-yl)-1H-indazol-5-yl)methanol], the figure is 75 nM; as for `Cc1cc(-c2cnc(N)c(-n3cc4cc(CO)ccc4n3)n2)cc2c1CCN(C)C2` [Example 5, (2-(3-amino-6-(2,5-dimethyl-1,2,3,4-tetrahydroisoquinolin-7-yl)pyrazin-2-yl)-2H-indazol-5-yl)methanol], 172 nM; as for `Cc1cc(-c2cnc(N)c(-n3cc(O)cn3)n2)cc2c1CCN(C)C2` [Example 7, 1-(3-amino-6-(2,5-dimethyl-1,2,3,4-tetrahydroisoquinolin-7-yl)pyrazin-2-yl)-1H-pyrazol-4-ol], 15 nM.

Take `Cc1cc(-c2cnc(N)c(OCc3ccncc3F)n2)cc2c1CCN(C)C2` [Example 8, 5-(2,5-dimethyl-1,2,3,4-tetrahydroisoquinolin-7-yl)-3-((3-fluoropyridin-4-yl)methoxy)pyrazin-2-amine]: the half-maximal inhibitory concentration (IC50) worked out at 46 nM.

On to `Cc1cnccc1COc1nc(-c2cc(C)c3c(c2)CN(C)CC3)cnc1N` [Example 9, 5-(2,5-dimethyl-1,2,3,4-tetrahydroisoquinolin-7-yl)-3-((3-methylpyridin-4-yl)methoxy)pyrazin-2-amine], for which the IC50 was determined as 17 nM.

For `Cc1cc(-c2cnc(N)c(OCc3ccnc(N)c3)n2)cc2c1CCN(C)C2` [Example 10, 3-((2-aminopyridin-4-yl)methoxy)-5-(2,5-dimethyl-1,2,3,4-tetrahydroisoquinolin-7-yl)pyrazin-2-amine], the IC50 stood at 5.2 nM. Then `Cc1cc(-c2cnc(N)c(OCc3ccnc(C#CC4CC4)c3)n2)cc2c1CCN(C)C2` [Example 11, 3-((2-(cyclopropylethynyl)pyridin-4-yl)methoxy)-5-(2,5-dimethyl-1,2,3,4-tetrahydroisoquinolin-7-yl)pyrazin-2-amine], with 50 nM; and `Cc1cc(-c2cnc(N)c(OCc3cc(Cl)ncc3OC(C)C)n2)cc2c1CCN(C)C2` [Example 12, 3-((2-chloro-5-isopropoxypyridin-4-yl)methoxy)-5-(2,5-dimethyl-1,2,3,4-tetrahydroisoquinolin-7-yl)pyrazin-2-amine], with 27 nM; and `Cc1cc(-c2cnc(N)c(OC3CCc4cnccc43)n2)cc2c1CCN(C)C2` (centres unmarked) [Example 13, 3-(6,7-dihydro-5H-cyclopenta[c]pyridin-5-yloxy)-5-(2,5-dimethyl-1,2,3,4-tetrahydroisoquinolin-7-yl)pyrazin-2-amine], with 62 nM. Then `Cc1cc(-c2cnc(N)c(OCc3ccnc(C#CC(C)(C)O)c3)n2)cc2c1CCN(C)C2` [Example 14, 4-(4-(((3-amino-6-(2,5-dimethyl-1,2,3,4-tetrahydroisoquinolin-7-yl)pyrazin-2-yl)oxy)methyl)pyridin-2-yl)-2-methylbut-3-yn-2-ol], with 9.4 nM; and `Cc1cc(-c2cnc(N)c(OCc3cccnc3)n2)cc2c1CCN(C)C2` [Example 15, 5-(2,5-dimethyl-1,2,3,4-tetrahydroisoquinolin-7-yl)-3-(pyridin-3-ylmethoxy)pyrazin-2-amine], with 157 nM. Then `Cc1cc(-c2cnc(N)c(OCc3c(Cl)cccc3Cl)n2)cc2c1CCN(C)C2` [Example 17, 3-((2,6-dichlorobenzyl)oxy)-5-(2,5-dimethyl-1,2,3,4-tetrahydroisoquinolin-7-yl)pyrazin-2-amine], with 231 nM; and `Cc1cc(-c2cnc(N)c(OCc3ccccc3)n2)cc2c1CCN(C)C2` [Example 18, 3-(benzyloxy)-5-(2,5-dimethyl-1,2,3,4-tetrahydroisoquinolin-7-yl)pyrazin-2-amine], with 73 nM; and `Cc1cc(-c2cnc(N)c(OCc3ccnc(C#Cc4cccnc4)c3)n2)cc2c1CCN(C)C2` [Example 19, 5-(2,5-dimethyl-1,2,3,4-tetrahydroisoquinolin-7-yl)-3-((2-(pyridin-3-ylethynyl)pyridin-4-yl)methoxy)pyrazin-2-amine], with 98 nM. For the compound `Cc1cc(-c2cnc(N)c(OCc3ccnc(C#Cc4ccc(F)cc4)c3)n2)cc2c1CCN(C)C2` [Example 20, 5-(2,5-dimethyl-1,2,3,4-tetrahydroisoquinolin-7-yl)-3-((2-((4-fluorophenyl)ethynyl)pyridin-4-yl)methoxy)pyrazin-2-amine], the half-inhibitory concentration (IC50) is 151 nM.

Turning to `Cc1cc(-c2cnc(N)c(OCc3ccncc3Cl)n2)cc2c1CCN(C)C2` [Example 21, 3-((3-chloropyridin-4-yl)methoxy)-5-(2,5-dimethyl-1,2,3,4-tetrahydroisoquinolin-7-yl)pyrazin-2-amine], the IC50 was found to be 35 nM. As for `Cc1cc(-c2cnc(N)c(OCc3ccnc4ccccc34)n2)cc2c1CCN(C)C2` [Example 22, 5-(2,5-dimethyl-1,2,3,4-tetrahydroisoquinolin-7-yl)-3-(quinolin-4-ylmethoxy)pyrazin-2-amine], the figure is 38 nM; as for `Cc1cc(-c2cnc(N)c(OCc3ccnc(C#Cc4ccncc4)c3)n2)cc2c1CCN(C)C2` [Example 23, 5-(2,5-dimethyl-1,2,3,4-tetrahydroisoquinolin-7-yl)-3-((2-(pyridin-4-ylethynyl)pyridin-4-yl)methoxy)pyrazin-2-amine], 137 nM; as for `Cc1cc(-c2cnc(N)c(OCc3ccnc(C#CC(C)(C)C)c3)n2)cc2c1CCN(C)C2` [Example 24, 5-(2,5-dimethyl-1,2,3,4-tetrahydroisoquinolin-7-yl)-3-((2-(3,3-dimethylbut-1-yn-1-yl)pyridin-4-yl)methoxy)pyrazin-2-amine], 61 nM. Regarding `CC#Cc1cc(COc2nc(-c3cc(C)c4c(c3)CN(C)CC4)cnc2N)ccn1` [Example 25, 5-(2,5-dimethyl-1,2,3,4-tetrahydroisoquinolin-7-yl)-3-((2-(prop-1-ynyl)pyridin-4-yl)methoxy)pyrazin-2-amine], the IC50 was 13 nM. Then `Cc1cc(-c2cnc(N)c(OC3CCCc4cnccc43)n2)cc2c1CCN(C)C2` (centres unmarked) [Example 26, 5-(2,5-dimethyl-1,2,3,4-tetrahydroisoquinolin-7-yl)-3-(5,6,7,8-tetrahydroisoquinolin-5-yloxy)pyrazin-2-amine], with 113 nM.

With `Cc1cc(-c2cnc(N)c(OCc3ccnc(N)c3C)n2)cc2c1CCN(C)C2` [Example 29, 3-((2-amino-3-methylpyridin-4-yl)methoxy)-5-(2,5-dimethyl-1,2,3,4-tetrahydroisoquinolin-7-yl)pyrazin-2-amine], the IC50 was 16 nM. For `Cc1cc(-c2cnc(N)c(OCc3ccncc3OC(C)C)n2)cc2c1CCN(C)C2` [Example 30, 5-(2,5-dimethyl-1,2,3,4-tetrahydroisoquinolin-7-yl)-3-((3-isopropoxypyridin-4-yl)methoxy)pyrazin-2-amine], the IC50 came to 7.6 nM. With `Cc1cc(-c2cnc(N)c(OCc3ccnc(N)c3)n2)cc2c1CN(C)CC2` [Example 31, 3-((2-aminopyridin-4-yl)methoxy)-5-(2,8-dimethyl-1,2,3,4-tetrahydroisoquinolin-6-yl)pyrazin-2-amine], the half-inhibitory concentration (IC50) was 25 nM.

Turning to `Cc1cnc(N)cc1COc1nc(-c2cc(C)c3c(c2)CN(C)CC3)cnc1N` [Example 32, 3-((2-amino-5-methylpyridin-4-yl)methoxy)-5-(2,5-dimethyl-1,2,3,4-tetrahydroisoquinolin-7-yl)pyrazin-2-amine], the IC50 came to 5.1 nM.
